Reference: article PMC4081582, “Enhancing Effect of Borneol and Muscone on Geniposide Transport across the Human Nasal Epithelial Cell Monolayer” (PLoS ONE, 2014)

Columns and labels:
Type in all cases: cell-based, human
actin = test: Actin immunostaining of HNEC monolayer (tight junction); settings: 3 h exposure with geniposide 50 µg·mL^−1, vs control
From the text: Cells cultured on 12-well polyester membrane Transwell clear inserts were stained for actin. […] Fluorescence was visualized on an epifluorescence microscope (IX-71, Olympus, Japan) using a blue filter and images were taken using the analysis software.

HNEC monolayer = test: TEER measurement of HNEC monolayer; settings: for TEER after washing and incubating with BEGM:DMEM/F12 (1∶1) for 24 h: after permeation experiment; for TEER decrease during permeation studies, of the initial value: borneol 55.6, 111.2 µg·mL^−1, muscone 8.34, 16.68 µg·mL^−1, and combinations, P<0.05
Protocol: Transepithelial electrical resistance was measured using an EVOM instrument (Millipore Corporation, USA) to check the monolayer integrity. The TEER of untreated cells and cells treated with borneol and muscone was determined in BEGM:DMEM/F12 (1∶1) before the experiment, after the experiment and after 24 h.

HNECs [1] = test: Membrane fluidity of HNECs by FRAP
Protocol: The cells were seeded on cell plate at a density of 5×10^4 cells·cm^−2. The above formulation groups were added and the plates were incubated for 3 h at 37 °C in a 5% CO2 incubator. Cells were rinsed with HBSS and stained with NBD-C6-HPC at 2 µg·mL^−1 for 30 min.
A method of fluorescence recovery after photobleaching (FRAP) was used here. After the definition of line scanning position, length and photobleaching position, the monolayer was visualized by a Confocal Laser Scanning Microscope under the following conditions: excitation wavelength of 488 nm, emission wavelength of 530 nm, laser power for fluorescence bleaching of 100%, bleaching time of 0.7 s, scanning frequency of 1.65 s and the total scanning time of 100 s. The fluorescence intensity time-variation at the photobleaching position was recorded and image formation was obtained by confocal tomoscanning.
The membrane fluidity was represented by fluorescence recovery rate (R) which was calculated with the following equation (4): [drawing 4] where F0 is the instant fluorescence value after photobleaching, F1 is the fluorescence value before photobleaching and F2 is the fluorescence recovery value after photobleaching.

HNECs [2] = test: MTT cytotoxicity assay on HNECs; settings: 24 h
Protocol: The cytotoxicity of the main active ingredients in “Xing Nao Jing” on HNECs was evaluated by the methyl thiazolyl tetrazolium (MTT) colorimetric assay. Briefly, 100 µL of 5×10^4 cells·mL^−1 was seeded into 96-well plates. After 24 h, the medium was removed and replaced with a fresh medium containing increasing concentrations of geniposide, borneol, muscone and their combinations for another 24 h. After that, 15 µL of a 5 mg·mL^−1 MTT solution in 100 µL BEGM was added to each well. After 4 h of incubation, the supernatant was discarded and formazan crystals were dissolved in DMSO followed by vigorous mixing. Control wells were incubated with BEGM only and were treated similarly as above. The optical density was determined at 490 nm with a Multiskan Go microplate reader (Thermo, USA). The percent viability of the cells was determined from the absorbance values considering that of the control as 100%.
The percentage of cell toxicity in the MTT assay was calculated by the following equation (1): [drawing 1]

SMILES | levels of the TJ proteins localized in the cell-cell junctions (actin) | TEER after washing and incubating with BEGM:DMEM/F12 (1∶1) for 24 h (HNEC monolayer) | TEER decrease during permeation studies, of the initial value (HNEC monolayer) | Fluorescence recovery rate R (%)±SD (HNECs [1]; Mu 4.17 µg·mL^−1 with Ge 50 µg·mL^−1, 3 h) [%] | Fluorescence recovery rate R (%)±SD (HNECs [1]; Mu 8.34 µg·mL^−1 with Ge 50 µg·mL^−1, 3 h) [%] | Fluorescence recovery rate R (%)±SD (HNECs [1]; Mu 16.68 µg·mL^−1 with Ge 50 µg·mL^−1, 3 h) [%] | concentration range with no cell cytotoxicity (HNECs [2]) [ng/mL] | Fluorescence recovery rate R (%)±SD (HNECs [1]; Bo 27.8 µg·mL^−1 with Ge 50 µg·mL^−1, 3 h) [%] | Fluorescence recovery rate R (%)±SD (HNECs [1]; Bo 55.6 µg·mL^−1 with Ge 50 µg·mL^−1, 3 h) [%] | Fluorescence recovery rate R (%)±SD (HNECs [1]; Bo 111.2 µg·mL^−1 with Ge 50 µg·mL^−1, 3 h) [%]
C[C@@H]1CCCCCCCCCCCCC(=O)C1 [muscone, Muscone] | decreased | increased again | 10–20% | 36.43±3.37 | 45.45±1.68 | 49.77±5.63 |  |  |  | 
CC1(C)C2CCC1(C)C(O)C2 (stereo not shown) [borneol, Borneol] | decreased | increased again | 10–20% |  |  |  | 0 to 300000 | 37.08±5.05 | 49.60±4.21 | 57.33±4.62
